Source: patent publication US20110218218A1, “Formulations Of Indanylamines And The Use Thereof As Local Anesthetics And As Medication For Chronic Pain” (BRIDGE PHARMA, INC., priority 2005, published 2011)
≈ marks a conversion by molar mass, not a printed value.

What was measured:
[1] = Screening of excipients for their capability to dissolve LAC-34 free base at room temperature; assay type: physicochemical; conditions: 22 °C, thermodynamic from solid
Experimental: (§1) HPLC analytical methodology was developed, using LAC-34 free base at room temperature (21-23° C.). A liquid's ability to dissolve LAC-34 was screened by adding a known mass of LAC-34 to a known volume/mass of liquid. Saturation solubility was measured by adding an excess of drug substance and allowing the suspension to equilibrate while stirring for 2-3 days. Four solutions of different concentrations of LAC-34 (8.1 mcg/mL to 0.98 mg/mL) plus a blank were typically tested in triplicate. Excellent linearity of the recovery was obtained over […] in LAC-34 concentrations and the relative standard deviations of peak areas for all LAC-34 solutions were less than 0.5%.
Various excipients were tested for their capability to dissolve LAC-34, free base.

[2] = Physical state of LAC-34 in solvents when tested at 4° C.; assay type: physicochemical
Experimental: When tested at 4° C., 20% LAC-34 in benzyl alcohol was a solution, 5% LAC-34 in propylene glycol was a gel, 5% LAC-34 in isopropyl myristate was a suspension, 5% LAC-34 in isopropyl palmitate was a solid, 5% LAC-34 in isopropyl alcohol was a suspension and cetyl alcohol was a solid (melting point=49.3° C.)

[3] = Saturation solubility of LAC-34 free base in selected solvents (HPLC); assay type: physicochemical; conditions: 22 °C, thermodynamic from solid
Experimental: as §1
The saturation solubility of LAC-34 was measured in capric/caprylic triglycerides (CCT), dimethylsulfoxide (DMSO), ethanol, isopropanol, isopropyl myristate (IPM), pentane, propylene glycol (PG), and water. CCT and IPM were selected for further work since they can function as emollients and oily vehicles in creams. DMSO is a solvent and a penetration enhancer. Ethanol and isopropanol are volatile solvents and rapid evaporation of a solvent like ethanol and isopropyl alcohol may be important for minimizing therapeutic onset time. Propylene glycol has multiple functions in dermal formulations, the most important of which are solubilization and penetration enhancement.
The analytical HPLC method described in Example 1 was used.
All of the solvents, with the exception of water, were able to dissolve large quantities of LAC-34. LAC-34, as the free base, was very soluble also in DMSO. Both IPM and CCT, which are semi-polar emollient oils, had also high solubilization capacity for LAC-34. Propylene glycol (PG), which has multiple actions for dermal drug delivery (see Table 1), was also able to solubilize significant quantities of LAC-34. […] After observing this phenomenon with ethanol, 0.125 g of isopropanol was added to 0.25 g of LAC-34. […] This was approximately 526 mg/mL.

[4] = Solubility of LAC-34 in binary mixtures of solvent and water (anti-solvent); assay type: physicochemical
Experimental: Due to the very high solubility of LAC-34 free base in numerous volatile solvents, it was determined to be necessary to find and add an anti-solvent in order to reach saturation of the solutions of LAC-34. The efficacy of water is an anti-solvent for LAC-34 free base was investigated in the present studies.

[5] = Ternary solubility studies: PG/ethanol solutions titrated with water until cloudy; assay type: physicochemical
Experimental: Therefore, several solutions were made where PG would be saturated or almost saturated with LAC-34 (i.e., […]). A quantity of ethanol was added to act at the volatile solvent. Each solution was titrated with water until it became cloudy. As with other titrations with water, the LAC-34 appeared to come out of solution as a liquid (oil) rather than a solid.

[6] = tested on: batrachotoxin-sensitive Na+ channel (site 2); experiment: [3H]batrachotoxin binding to Na+ channels (site 2); set-up: species or system rat
human NaV1.3 channels = biological target: T1, human NaV1.3 channels (Homo sapiens, UniProt Q9NY46); experiment: NaV1.3 electrophysiology (patch clamp) in HEK-293 cells; assay type: cell-based
T1 construct: expressed in transfected cells; host or cells: HEK-293

human NaV1.5 channels = biological target: T2, human NaV1.5 channels (Homo sapiens, UniProt Q14524); experiment: NaV1.5 electrophysiology (patch clamp) in HEK-293 cells; assay type: cell-based
T2 construct: expressed in transfected cells; host or cells: HEK-293

guinea pigs = experiment: Dermal anesthesia after dermal application, pinprick method; assay type: in vivo, guinea pig; conditions: for Average Anesthetic Score: 2.0 ml of 5.0% solution in DMSO/water, 30 min occluded, maximal score 6
Experimental: The purpose of this study was to determine the efficacy of the free base and pharmaceutically acceptable salt forms of LAC-34 as dermal anesthetics, following dermal application of the compounds to guinea pigs. The Duration of Anesthesia is directly related to the Dermal Residence Times of the test articles.
Four groups of six male guinea pigs received a dose of 2.0 ml of a 5.0% solution of four test articles (LAC-34 base, LAC-34 mono-HCl salt, LAC-34 di-HCl salt and LAC-34 mesylate salt) that had been applied onto a two-inch square, 4-layer thick gauze pad on depilated dorsal skin of each guinea pig. Similarly, one group of guinea pigs received the vehicle, which consisted of DMSO/water and served as the control group. The gauze was occluded and the guinea pigs were wrapped for 30 min. Animals were assessed for initial pain reaction (anesthetic depth) at 15-minute intervals up to 3 hours and at 24 hours. An algesimeter, set at 10 g, was employed to assess the onset and depth of anesthesia using the pinprick method causing a twitch response or non-response. The “Average Anesthetic Score” was defined as number of probings not producing a dermal twitch response. Thus, a situation where there were no dermal twitch responses to six probings represent a maximal anesthetic effect and is denoted as an Average Anesthetic Score of 6. Duration of Anesthesia was in this study defined as the time from patch removal until the test scores have regressed to an average anesthetic score below 2.0. The Duration of Anesthesia in this type of experiments is directly related the duration of Dermal Residency for the test articles.

[7] = Water solubility (spectrophotometric, HPLC); assay type: physicochemical; conditions: LAC-34 as free base
Experimental: (§2) Water solubility and dissociation constants were determined for the free base of LAC-34 using standard spectrophotometric, HPLC and potentiometric methods.

[8] = Dissociation constant (pKa), potentiometric; assay type: physicochemical; conditions: LAC-34 as free base
Experimental: as §2

T1 sequence (Q9NY46 whole entry): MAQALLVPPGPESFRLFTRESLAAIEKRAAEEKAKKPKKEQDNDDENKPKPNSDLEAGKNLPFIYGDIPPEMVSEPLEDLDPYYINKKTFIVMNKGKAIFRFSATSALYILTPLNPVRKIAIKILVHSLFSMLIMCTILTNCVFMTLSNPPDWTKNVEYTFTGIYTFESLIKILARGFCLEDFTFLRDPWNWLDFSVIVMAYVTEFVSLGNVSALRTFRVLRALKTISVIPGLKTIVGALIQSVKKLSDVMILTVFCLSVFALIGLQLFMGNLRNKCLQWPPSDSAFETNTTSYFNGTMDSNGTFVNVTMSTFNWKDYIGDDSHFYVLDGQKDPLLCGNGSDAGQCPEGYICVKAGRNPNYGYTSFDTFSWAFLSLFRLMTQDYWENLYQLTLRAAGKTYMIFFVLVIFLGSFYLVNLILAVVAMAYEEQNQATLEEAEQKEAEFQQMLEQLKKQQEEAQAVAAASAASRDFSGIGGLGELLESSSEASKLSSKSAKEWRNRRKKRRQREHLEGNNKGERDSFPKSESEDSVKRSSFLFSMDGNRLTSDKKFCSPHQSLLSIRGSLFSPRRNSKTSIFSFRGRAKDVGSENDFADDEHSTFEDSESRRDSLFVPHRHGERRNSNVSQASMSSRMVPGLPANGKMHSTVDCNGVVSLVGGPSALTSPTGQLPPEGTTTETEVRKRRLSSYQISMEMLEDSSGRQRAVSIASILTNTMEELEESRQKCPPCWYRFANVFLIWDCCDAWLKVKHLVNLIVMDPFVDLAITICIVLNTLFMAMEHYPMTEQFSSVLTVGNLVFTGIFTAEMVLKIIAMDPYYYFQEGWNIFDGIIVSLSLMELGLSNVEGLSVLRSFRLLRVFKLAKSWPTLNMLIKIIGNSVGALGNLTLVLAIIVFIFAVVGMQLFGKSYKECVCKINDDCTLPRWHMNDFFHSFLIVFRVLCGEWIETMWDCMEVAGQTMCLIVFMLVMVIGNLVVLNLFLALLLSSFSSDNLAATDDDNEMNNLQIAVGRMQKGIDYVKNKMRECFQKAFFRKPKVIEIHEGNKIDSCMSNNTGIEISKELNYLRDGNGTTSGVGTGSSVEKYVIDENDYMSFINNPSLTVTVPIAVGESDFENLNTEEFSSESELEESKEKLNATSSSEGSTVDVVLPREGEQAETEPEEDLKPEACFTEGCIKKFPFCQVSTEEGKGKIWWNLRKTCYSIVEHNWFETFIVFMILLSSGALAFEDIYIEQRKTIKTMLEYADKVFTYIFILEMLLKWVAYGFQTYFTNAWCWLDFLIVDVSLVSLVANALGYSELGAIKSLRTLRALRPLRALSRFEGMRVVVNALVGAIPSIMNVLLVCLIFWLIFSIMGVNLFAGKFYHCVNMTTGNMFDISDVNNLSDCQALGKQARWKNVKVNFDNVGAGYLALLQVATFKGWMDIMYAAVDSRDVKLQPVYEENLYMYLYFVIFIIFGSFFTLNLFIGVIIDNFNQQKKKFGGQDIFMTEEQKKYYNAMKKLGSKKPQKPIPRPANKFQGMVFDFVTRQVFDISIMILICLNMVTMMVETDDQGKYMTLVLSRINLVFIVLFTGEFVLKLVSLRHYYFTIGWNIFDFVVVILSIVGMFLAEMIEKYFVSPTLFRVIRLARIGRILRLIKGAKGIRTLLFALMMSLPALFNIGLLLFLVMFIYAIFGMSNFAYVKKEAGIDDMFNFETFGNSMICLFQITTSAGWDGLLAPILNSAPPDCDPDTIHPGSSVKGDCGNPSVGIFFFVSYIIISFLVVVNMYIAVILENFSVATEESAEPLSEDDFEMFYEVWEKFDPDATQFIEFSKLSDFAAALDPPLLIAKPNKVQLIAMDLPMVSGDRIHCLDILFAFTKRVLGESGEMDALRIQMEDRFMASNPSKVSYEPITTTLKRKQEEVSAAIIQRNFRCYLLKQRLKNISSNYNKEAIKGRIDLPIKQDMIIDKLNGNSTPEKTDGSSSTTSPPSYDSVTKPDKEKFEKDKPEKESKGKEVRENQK
T2 sequence (Q14524 whole entry): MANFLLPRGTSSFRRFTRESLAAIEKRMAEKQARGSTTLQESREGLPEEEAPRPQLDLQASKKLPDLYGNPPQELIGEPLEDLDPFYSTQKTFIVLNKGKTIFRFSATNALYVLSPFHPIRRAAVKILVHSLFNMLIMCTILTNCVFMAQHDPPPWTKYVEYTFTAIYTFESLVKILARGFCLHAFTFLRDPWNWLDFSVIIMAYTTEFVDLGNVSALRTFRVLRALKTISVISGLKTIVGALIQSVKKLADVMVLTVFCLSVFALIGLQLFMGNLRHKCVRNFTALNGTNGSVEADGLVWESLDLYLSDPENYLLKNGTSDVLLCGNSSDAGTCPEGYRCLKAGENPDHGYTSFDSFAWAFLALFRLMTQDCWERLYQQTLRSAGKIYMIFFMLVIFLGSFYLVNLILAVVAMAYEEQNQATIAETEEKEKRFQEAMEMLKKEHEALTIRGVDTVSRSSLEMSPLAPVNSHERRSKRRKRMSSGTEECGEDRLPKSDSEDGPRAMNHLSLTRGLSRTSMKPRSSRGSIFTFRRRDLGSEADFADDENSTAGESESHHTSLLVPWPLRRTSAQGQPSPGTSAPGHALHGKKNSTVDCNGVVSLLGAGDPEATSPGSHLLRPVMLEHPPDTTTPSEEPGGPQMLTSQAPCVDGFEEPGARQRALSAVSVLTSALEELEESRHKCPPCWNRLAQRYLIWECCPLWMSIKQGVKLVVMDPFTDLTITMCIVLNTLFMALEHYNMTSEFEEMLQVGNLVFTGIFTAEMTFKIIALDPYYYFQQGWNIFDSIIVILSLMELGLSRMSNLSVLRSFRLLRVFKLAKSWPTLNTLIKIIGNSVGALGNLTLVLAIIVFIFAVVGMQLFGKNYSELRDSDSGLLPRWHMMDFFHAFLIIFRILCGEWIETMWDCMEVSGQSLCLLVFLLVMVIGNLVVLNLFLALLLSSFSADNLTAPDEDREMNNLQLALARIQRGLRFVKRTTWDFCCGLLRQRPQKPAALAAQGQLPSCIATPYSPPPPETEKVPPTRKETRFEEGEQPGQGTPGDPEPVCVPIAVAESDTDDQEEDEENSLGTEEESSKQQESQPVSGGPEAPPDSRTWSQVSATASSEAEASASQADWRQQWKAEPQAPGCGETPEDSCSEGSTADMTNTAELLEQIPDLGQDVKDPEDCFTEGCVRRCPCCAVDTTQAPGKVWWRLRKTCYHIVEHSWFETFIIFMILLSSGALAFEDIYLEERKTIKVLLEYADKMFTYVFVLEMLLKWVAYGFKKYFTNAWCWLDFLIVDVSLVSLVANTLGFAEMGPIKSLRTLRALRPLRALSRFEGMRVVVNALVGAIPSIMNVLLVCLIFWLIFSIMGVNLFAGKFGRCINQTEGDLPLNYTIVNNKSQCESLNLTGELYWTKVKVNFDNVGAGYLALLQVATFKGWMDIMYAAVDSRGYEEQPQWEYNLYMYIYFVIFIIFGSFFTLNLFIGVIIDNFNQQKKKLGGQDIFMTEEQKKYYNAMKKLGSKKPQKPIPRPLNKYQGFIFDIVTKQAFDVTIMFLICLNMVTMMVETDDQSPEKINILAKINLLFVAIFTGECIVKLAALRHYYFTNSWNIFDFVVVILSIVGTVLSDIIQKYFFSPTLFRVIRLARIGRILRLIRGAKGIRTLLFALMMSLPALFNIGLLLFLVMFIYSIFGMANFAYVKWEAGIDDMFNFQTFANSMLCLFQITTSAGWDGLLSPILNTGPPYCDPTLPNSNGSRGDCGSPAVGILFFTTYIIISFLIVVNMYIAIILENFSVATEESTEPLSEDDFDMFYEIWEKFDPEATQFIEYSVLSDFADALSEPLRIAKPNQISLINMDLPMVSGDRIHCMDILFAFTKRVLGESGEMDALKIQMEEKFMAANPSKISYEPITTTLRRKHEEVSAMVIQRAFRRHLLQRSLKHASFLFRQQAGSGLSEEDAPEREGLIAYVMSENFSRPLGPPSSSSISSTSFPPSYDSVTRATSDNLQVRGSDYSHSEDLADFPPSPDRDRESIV

**Q.** Which results are given for c1ccc(N(CCC2CCCCN2)C2Cc3ccccc3C2)cc1 (racemic) [LAC-34, 2-[2-(N-Phenyl-N-2-indanyl)aminoethyl]piperidine]?
**A.** solubility ([1]; oil or lipid, in isopropyl myristate): > 78 mg/mL; solubility ([1]; oil or lipid, in isopropyl palmitate): 50 to 100 mg/mL (≈ 156 to 312 mM); solubility ([1]; oil or lipid, in mineral oil): < 50 mg/mL; solubility ([1]; organic solvent or mixture, in benzyl alcohol): > 100 mg/mL; solubility ([1]; organic solvent or mixture, in dibutyl adipate): > 79 mg/mL; solubility ([1]; organic solvent or mixture, in ethanol): > 86 mg/mL; solubility ([1]; organic solvent or mixture, in hexylene glycol): > 75 mg/mL; solubility ([1]; organic solvent or mixture, in isopropyl alcohol): > 79 mg/mL; solubility ([1]; organic solvent or mixture, in propylene carbonate): > 78 mg/mL; solubility ([1]; organic solvent or mixture, in propylene glycol): > 76 mg/mL; Physical state at 4° C. ([2]; 5% LAC-34 in isopropyl alcohol): suspension; Physical state at 4° C. ([2]; 5% LAC-34 in isopropyl myristate): suspension; Physical state at 4° C. ([2]; 5% LAC-34 in isopropyl palmitate): solid; Physical state at 4° C. ([2]; 5% LAC-34 in propylene glycol): gel; Physical state at 4° C. ([2]; 20% LAC-34 in benzyl alcohol): solution; solubility ([3]; capric/caprylic triglycerides (CCT), oil or lipid, in capric/caprylic triglycerides (CCT)): 195 mg/mL (≈ 608 mM); solubility ([3]; dimethylsulfoxide (DMSO), organic solvent or mixture, in dimethylsulfoxide (DMSO)): 215 mg/mL (≈ 671 mM); solubility ([3]; ethanol, organic solvent or mixture, in ethanol (never saturated)): > 2000 mg/mL; solubility ([3]; isopropyl myristate (IPM), oil or lipid, in isopropyl myristate (IPM)): 184 mg/mL (≈ 574 mM); solubility ([3]; pentane, organic solvent or mixture, in pentane, value uncertain, pentane evaporates rapidly): 150 mg/mL (≈ 468 mM); solubility ([3]; propylene glycol (PG), organic solvent or mixture, in propylene glycol (PG)): 149 mg/mL (≈ 465 mM); solubility ([3]; water, in water): 0.005 mg/mL (≈ 0.0156 mM); solubility ([4]; DMSO with 5% water, organic solvent or mixture, DMSO, 5% water, previous tests): ≥ 100 mg/mL; solubility ([4]; DMSO with 50% water, aqueous with cosolvent or surfactant or cyclodextrin, DMSO, 50% water, read-out: Solubility of LAC-34 in mixture of solvent and water): 1.7 mg/mL (≈ 5.3 mM); solubility ([4]; DMSO with 90% water, aqueous with cosolvent or surfactant or cyclodextrin, DMSO, 90% water, read-out: Solubility of LAC-34 in mixture of solvent and water): 0.45 mg/mL (≈ 1.4 mM); solubility ([4]; DMSO, 0% water, organic solvent or mixture): 215 mg/mL (≈ 671 mM); solubility ([4]; ethanol with 15% water, organic solvent or mixture, kinetic from dmso stock, ethanol, 15% water, titrated from an ethanol/LAC-34 solution with water): 63 mg/mL (≈ 197 mM); solubility ([4]; ethanol with 20% water, organic solvent or mixture, kinetic from dmso stock, ethanol, 20% water, titrated from an ethanol/LAC-34 solution with water): 33 mg/mL (≈ 103 mM); solubility ([4]; ethanol with 30% water, organic solvent or mixture, kinetic from dmso stock, ethanol, 30% water, titrated from an ethanol/LAC-34 solution with water): 7 mg/mL (≈ 21.8 mM); solubility ([4]; ethanol, 0% water, organic solvent or mixture): > 2000 mg/mL; solubility ([4]; propylene glycol with 1% water, organic solvent or mixture, PG, 1% water): 139 mg/mL (≈ 434 mM); solubility ([4]; propylene glycol with 2.5% water, organic solvent or mixture, PG, 2.5% water): 104 mg/mL (≈ 325 mM); solubility ([4]; propylene glycol with 5% water, organic solvent or mixture, PG, 5% water): 63 mg/mL (≈ 197 mM); solubility ([4]; propylene glycol with 10% water, organic solvent or mixture, PG, 10% water): 29 mg/mL (≈ 90.5 mM); solubility ([4]; propylene glycol with 20% water, organic solvent or mixture, PG, 20% water): 8.7 mg/mL (≈ 27.1 mM); solubility ([4]; propylene glycol with 50% water, aqueous with cosolvent or surfactant or cyclodextrin, PG, 50% water, read-out: Solubility of LAC-34 in mixture of solvent and water): 0.37 mg/mL (≈ 1.15 mM); solubility ([4]; propylene glycol with 75% water, aqueous with cosolvent or surfactant or cyclodextrin, PG, 75% water, read-out: Solubility of LAC-34 in mixture of solvent and water): 0.075 mg/mL (≈ 0.234 mM); solubility ([4]; propylene glycol, organic solvent or mixture, PG, 0% water): 149 mg/mL (≈ 465 mM); Saturation Concentration of LAC-34 ([5]; 0.150 g LAC-34, 1.0 g PG, 0.5 g ethanol, 0.317 g water titrated): 7.6 % w/w; Saturation Concentration of LAC-34 ([5]; 0.150 g LAC-34, 1.0 g PG, 1.0 g ethanol, 0.601 g water titrated): 5.4 % w/w; Saturation Concentration of LAC-34 ([5]; 0.200 g LAC-34, 1.0 g PG, 3.0 g ethanol, 1.880 g water titrated): 3.3 % w/w; Potency relative to lidocaine, batrachotoxin-sensitive Na-channels ([6]; calculated from IC50 values): approximately 210 times; IC50 ([6]; rat cerebral cortex, 10 nM ligand, 60 min/22° C., read-out: IC50, inhibition of [3H]batrachotoxin specific binding): 247 nM; IC50 (human NaV1.3 channels; HEK-293 cells, patch clamp): 4000 nM; Potency relative to lidocaine, NaV1.3 channels (human NaV1.3 channels; calculated): more than 200 times; IC50 (human NaV1.5 channels): 600 nM; Potency relative to lidocaine, NaV1.5 channels (human NaV1.5 channels; calculated): about 500 times; Average Anesthetic Score (guinea pigs; 15 min after patch removal): 4.8; Average Anesthetic Score (guinea pigs; 30 min after patch removal): 4.8; Average Anesthetic Score (guinea pigs; 60 min after patch removal): 4.4; Average Anesthetic Score (guinea pigs; 90 min after patch removal): 3.3; Average Anesthetic Score (guinea pigs; 180 min after patch removal): 2.2; Maximal Depth of Anesthesia (guinea pigs; highest Average Anesthetic Score after patch removal, 5.0% solution): 4.8; Duration of Anesthesia (guinea pigs; time from patch removal until average anesthetic score below 2.0, 5.0% solution): 180 min; solubility [7]: 0.005 mg/mL (≈ 0.0156 mM); pKa [8]: 8.09 ± 0.23

**Q.** Which inhibition at 2000 µM (human NaV1.3 channels; HEK293, read-out: inhibition of NaV1.3 channels) does the source give for CCN(CC)CC(=O)Nc1c(C)cccc1C [Lidocaine, reference compound] here?
**A.** 70%

**Q.** With CCCCNc1ccc(C(=O)OCCN(C)C)cc1 [Tetracaine, reference compound] as the compound, how does the solubility [7] read?
**A.** 0.356 mg/mL (≈ 1.35 mM)

**Q.** And the pKa [8]?
**A.** 8.51 ± 0.12
